Reference: US4343808A, “Method of inhibiting sickling of sickle erythrocytes” (The Dow Chemical Company, priority 1980, dated 1982)
Each block holds one compound with its values, some of them ahead of it.

What was measured:
Hb-S = Hb-S (Homo sapiens, UniProt P68871+P69905, E7V); test: Oxygen-Affinity Assay (whole Hb-S blood); format: cell-based; conditions: 37° C.
Experimental: The compounds described herein were tested in an "Oxygen-Affinity Assay" to measure the ability of the compound to influence the Hb-S oxygen affinity. There is a relationship between oxygen binding and Hb-S gelation and thus a measure of oxygen affinity is an index of Hb-S aggregation within the red blood cell. Hemoglobin S polymers decrease the overall oxygen affinity. Thus a return to normal of Hb-S oxygen affinity is a measure of decreased gelation.
For measurements of oxygen equilibria whole Hb-S blood was equilibrated in a tonometer at 37° C. and measurements were made in the presence of a 10 millimolar (mM) concentration of the test compound. Some of the compounds were also tested at a 5 mM concentration. The whole blood pH, oxygen tension, and blood PO2 were measured.
The percentage of oxygen saturation was plotted against the partial pressure of oxygen (mm Hg). The P50 value (oxygen tension at 50% saturation) was determined for each control and treated whole blood sample and the difference (ΔP50) between the control and treated whole blood sample noted. As used herein, a negative ΔP50 represents a change toward a normal Hb-S oxygen affinity and thus is a measure of the test compound's ability to inhibit the sickling of sickle erythrocytes.

Toxicity (LD50) in mice = conditions: mouse, in vivo, ip, intraperitoneal injection
[1] = test system: sickle erythrocytes (intact sickle cells); test: Blockade Erythrocyte Morphology, chemically induced sickling (sodium metabisulfite); format: cell-based, human
Experimental: (§1) The compound 2-((4-cyanophenoxy)methyl)-2-imidazoline p-toluenesulfonate (Example 2) and 2-((3-cyanophenoxy)methyl)-2-imidazoline p-toluenesulfonate (Example 4) were tested for anti-sickling activity using a suspension of intact sickle cells as follows:
(§2) Blood collected from individuals with homozygous sickle cell disease, as well as normal blood, was anticoagulated with ethylenediaminetetraacetic acid (EDTA) and refrigerated until used. To portions of the blood samples were added appropriate volumes of a solution of the compound to be tested so that final concentrations of 0.0125 molar (M), 0.025 M, 0.05 M or 0.1 M were obtained, and the mixtures were incubated at 37° C. for 30 minutes. The test compounds were dissolved in saline. Appropriate volumes of saline were added to the control samples. Urea in invert sugar (UIS) at 0.05 M to 1.5 M concentrations was used as an agent capable of transforming sickled cells into normal forms and was therefore used as a positive control.
(§3) Sickling was induced chemically by reducing the blood samples with an equal volume of a 2% solution of sodium metabisulfite in phosphate-buffered saline for 30 minutes.
(§4) After the sickling stimulus, slides were prepared. A volume of 0.2 ml of sickled cells were fixed in 1.0 ml of 3.2% glutaraldehyde in 0.1 M cacodylic buffer. Wet slides were prepared and sealed.
(§5) The slides were scored for normal cells (Typ.), atypical cells (Atyp.) and sickled cells (Sickle) on the basis of counting 300 cells per slide.

[2] = test system: sickle erythrocytes (sickle cell blood); test: Reverse Erythrocyte Morphology, deoxygenation induced sickling; format: cell-based, human
Experimental: as §2
(§6) Anoxic sickling (deoxygenation) was induced by exposing sickle blood to a hydrated 95% nitrogen, 5% carbon dioxide atmosphere for 60 minutes.
as §4, §5
(§7) The compound 2-((4-cyanophenoxy)methyl)-2-imidazoline p-toluenesulfonate (Example 2) was tested for its ability to reverse the sickling process by first applying the hereinabove noted sickling stimuli to the sickle cell blood and then adding the test compound to the red cell suspensions.

[3] = test system: sickle erythrocytes (sickle cell blood); test: Reverse Erythrocyte Morphology, chemically induced sickling (sodium metabisulfite); format: cell-based, human
Experimental: as §2, §3, §4, §5, §7

[4] = test system: sickle erythrocytes (intact sickle cells); test: Blockade Erythrocyte Morphology, deoxygenation induced sickling; format: cell-based, human; conditions: for interference with deoxygenation induced sickling: Table 1
Experimental: as §1, §2, §6, §4, §5

[5] = target: T1, deoxyhemoglobin S (Deoxy Hb-S) (Homo sapiens, UniProt P68871+P69905, E7V); test: Solubility of deoxyhemoglobin S (hemoglobin gelation); format: biochemical; conditions: 10 mM
T1 construct: native tetramer alpha2 betaS2
Experimental: The compound 2-((3-cyanophenoxy)methyl)-2-imidazoline p-toluenesulfonate was tested to determine its ability to inhibit sickle erythrocyte hemoglobin gelation as follows:
The solubility of deoxyhemoglobin S (Deoxy Hb-S) was determined utilizing substantially the same procedure described by Behe, M. J., Englander, S. W., Biochemistry 18: 4196-4201 (1979). Assays were done to determine the equilibrium solubility of Hb-S in the presence of inhibitor (i.e., test compound). […] Test mixtures were placed in a 4 centimeter (cm) length of thin quartz tubing sealed at one end, and then incubated at 37° C. for two hours to achieve gelation, and then re-equilibrated in a water bath (20° C.) for 20 minutes. The quartz tubing containing the test mixture was then placed in a glycerol filled centrifuge tube (topped by a rubber ring to center the quartz tubing) and centrifuged for two hours at 140,000 times gravity. […] The concentration of the hemoglobin in the supernatant was determined by measuring the absorbance at 540 nanometers (nm) after a 300-fold dilution with normally oxygenated buffer.
The Relative Solubility is a measure of the ability of the test compound to increase the solubility of deoxyhemoglobin S and is readily determined by comparing the solubility of the treated (i.e., test compound present) sample versus the control (i.e., test compound absent) sample.

[6] = over the ranges tested (0.025-0.1 M)
[7] = reverse, deoxygenation, 0.025 M, vs control
[8] = reverse, deoxygenation, 0.05 M, vs control
[9] = reverse, deoxygenation, 0.1 M, vs control
[10] = reverse, chemically induced, 0.025 M, vs control
[11] = reverse, chemically induced, 0.05 M
[12] = reverse, chemically induced, 0.05 M, vs control
[13] = reverse, chemically induced, 0.1 M
[14] = reverse, chemically induced, 0.1 M, vs control
[15] = Homo sapiens, Erythrocyte, deoxygenation, 0.025 M, vs control, read-out: Percent Change, Sickle (sickled cells)
[16] = Homo sapiens, Erythrocyte, deoxygenation, 0.05 M, vs control, read-out: Percent Change, Sickle (sickled cells)
[17] = deoxygenation, 0.025 M, vs control
[18] = deoxygenation, 0.05 M, vs control
[19] = deoxygenation, 0.1 M, vs control
[20] = deoxygenation, 0.0125 M, vs control

Compound: O=[N+]([O-])c1cccc(OCC2=NCCN2)c1 [Example 1]
Δ P50 (oxygen tension at 50% saturation, difference control vs treated) (Hb-S; 5 mM): -2 mm Hg | Δ P50 (oxygen tension at 50% saturation, difference control vs treated) (Hb-S; 10 mM): -10.6 mm Hg

Compound: Cc1ccc(S(=O)(=O)O)cc1.N#Cc1ccc(OCC2=NCCN2)cc1 [Example 2, 2-((4-Cyanophenoxy)methyl)-2-imidazoline p-Toluenesulfonate]
LD50 (Toxicity (LD50) in mice): 316 mg/kg | sickling inhibitory effect in the chemically induced test system [1]: slightly sickling inhibitory effect | Lysis ([1]; 0.025 M): - | Percent Change, Atyp. (atypical cells) ([1]; 0.025 M, vs control): -14% | Percent Change, Typ. (normal cells) ([1]; 0.025 M, vs control): +56% | Lysis ([1]; 0.05 M): - | Percent Change, Atyp. (atypical cells) ([1]; 0.05 M, vs control): +138% | Percent Change, Typ. (normal cells) ([1]; 0.05 M, vs control): +84% | Lysis ([1]; 0.1 M): ± (the appearance of some cell lysis at that particular test compound concentration) | Percent Change, Atyp. (atypical cells) ([1]; 0.1 M, vs control): -63% | Percent Change, Typ. (normal cells) ([1]; 0.1 M, vs control): +78% | inhibition at 25000 µM ([1]; Homo sapiens, Erythrocyte, 0.5 h, 0.025 M, vs control, read-out: Percent Change, Sickle (sickled cells)): 27% | inhibition at 50000 µM ([1]; Homo sapiens, Erythrocyte, 0.5 h, 0.05 M, vs control, read-out: Percent Change, Sickle (sickled cells)): 29% | inhibition at 100000 µM ([1]; Homo sapiens, Erythrocyte, 0.5 h, 0.1 M, vs control, read-out: Percent Change, Sickle (sickled cells)): 32% | inhibition at 25000 µM ([2]; Homo sapiens, Erythrocyte, reverse, deoxygenation, 0.025 M, vs control, read-out: Percent Change, Sickle (sickled cells)): 47% | inhibition at 50000 µM ([2]; Homo sapiens, Erythrocyte, reverse, deoxygenation, 0.05 M, vs control, read-out: Percent Change, Sickle (sickled cells)): 46% | inhibition at 100000 µM ([2]; Homo sapiens, Erythrocyte, reverse, deoxygenation, 0.1 M, vs control, read-out: Percent Change, Sickle (sickled cells)): 41% | reversal of sickling induced by deoxygenation [2, 6]: effectively reversed sickling | Lysis ([2]; reverse, deoxygenation, 0.025 M): - | Percent Change, Atyp. (atypical cells) [2, 7]: -22% | Percent Change, Typ. (normal cells) [2, 7]: +133% | Lysis ([2]; reverse, deoxygenation, 0.05 M): - | Percent Change, Atyp. (atypical cells) [2, 8]: -26% | Percent Change, Typ. (normal cells) [2, 8]: +142% | Lysis ([2]; reverse, deoxygenation, 0.1 M): ± (the appearance of some cell lysis at that particular test compound concentration) | hemolysis (in words) ([2]; reverse, deoxygenation, 0.1 M): some hemolysis observed | Percent Change, Atyp. (atypical cells) [2, 9]: -46% | Percent Change, Typ. (normal cells) [2, 9]: +202% | inhibition at 25000 µM ([3]; Homo sapiens, Erythrocyte, reverse, chemically induced, 0.025 M, vs control, read-out: Percent Change, Sickle (sickled cells)): 27% | inhibition at 50000 µM ([3]; Homo sapiens, Erythrocyte, reverse, chemically induced, 0.05 M, vs control, read-out: Percent Change, Sickle (sickled cells)): 52% | inhibition at 100000 µM ([3]; Homo sapiens, Erythrocyte, reverse, chemically induced, 0.1 M, vs control, read-out: Percent Change, Sickle (sickled cells)): 48% | reversal of sickling induced chemically [3, 6]: effectively reversed sickling | Lysis ([3]; reverse, chemically induced, 0.025 M): - | Percent Change, Atyp. (atypical cells) [3, 10]: -49% | Percent Change, Typ. (normal cells) [3, 10]: +48% | Lysis [3, 11]: ± (the appearance of some cell lysis at that particular test compound concentration) | hemolysis (in words) [3, 11]: some hemolysis observed | Percent Change, Atyp. (atypical cells) [3, 12]: -73% | Percent Change, Typ. (normal cells) [3, 12]: +87% | Lysis [3, 13]: ± (the appearance of some cell lysis at that particular test compound concentration) | hemolysis (in words) [3, 13]: some hemolysis observed | Percent Change, Atyp. (atypical cells) [3, 14]: -96% | Percent Change, Typ. (normal cells) [3, 14]: +86% | Δ P50 (oxygen tension at 50% saturation, difference control vs treated) (Hb-S; 10 mM): -9.1 mm Hg | inhibition at 25000 µM [4, 15]: 19% | inhibition at 50000 µM [4, 16]: 27% | inhibition at 100000 µM ([4]; Homo sapiens, Erythrocyte, deoxygenation, 0.1 M, vs control, read-out: Percent Change, Sickle (sickled cells)): 61% | interference with deoxygenation induced sickling [4]: interfered with deoxygenation induced sickling | Lysis ([4]; deoxygenation, 0.025 M): - | Percent Change, Atyp. (atypical cells) [4, 17]: -36% | Percent Change, Typ. (normal cells) [4, 17]: +86% | Lysis ([4]; deoxygenation, 0.05 M): - | cell lysis (in words) ([4]; deoxygenation, 0.05 M): without the appearance of cell lysis | Percent Change, Atyp. (atypical cells) [4, 18]: -36% | Percent Change, Typ. (normal cells) [4, 18]: +106% | Lysis ([4]; deoxygenation, 0.1 M): ± (the appearance of some cell lysis at that particular test compound concentration) | Percent Change, Atyp. (atypical cells) [4, 19]: -39% | Percent Change, Typ. (normal cells) [4, 19]: +170%

Δ P50 (oxygen tension at 50% saturation, difference control vs treated) (Hb-S; 10 mM): -7.0 mm Hg
Compound: CS(=O)(=O)c1ccc(OCC2=NCCN2)cc1.Cl [Example 3, 2-((4-(Methylsulfonyl)phenoxy)methyl)-2-imidazoline Hydrochloride]

Compound: Cc1ccc(S(=O)(=O)O)cc1.N#Cc1cccc(OCC2=NCCN2)c1 [Example 4, 2-((3-cyanophenoxy)methyl)-2-imidazoline p-toluenesulfonate]
solubility of deoxyhemoglobin S (in words) [5]: increased | Δ P50 (oxygen tension at 50% saturation, difference control vs treated) (Hb-S; 5 mM): -1 mm Hg | Δ P50 (oxygen tension at 50% saturation, difference control vs treated) (Hb-S; 10 mM): -13.7 mm Hg | inhibition at 12500 µM ([4]; Homo sapiens, Erythrocyte, deoxygenation, 0.0125 M, vs control, read-out: Percent Change, Sickle (sickled cells)): 33% | inhibition at 25000 µM [4, 15]: 69% | inhibition at 50000 µM [4, 16]: 77% | interference with deoxygenation induced sickling [4]: interfered with deoxygenation induced sickling | Lysis ([4]; deoxygenation, 0.0125 M): - | Percent Change, Atyp. (atypical cells) [4, 20]: -65% | Percent Change, Typ. (normal cells) [4, 20]: +201% | Lysis ([4]; deoxygenation, 0.025 M): - | Percent Change, Atyp. (atypical cells) [4, 17]: -78% | Percent Change, Typ. (normal cells) [4, 17]: +316% | Lysis ([4]; deoxygenation, 0.05 M): - | cell lysis (in words) ([4]; deoxygenation, 0.05 M): without the appearance of cell lysis | Percent Change, Atyp. (atypical cells) [4, 18]: -74% | Percent Change, Typ. (normal cells) [4, 18]: +407%

Compound: CSc1ccc(OCC2=NCCN2)cc1C [Example 5, 2-((4-(Methylthio)-m-tolyloxy)methyl)-2-imidazoline]
Δ P50 (oxygen tension at 50% saturation, difference control vs treated) (Hb-S; 5 mM): -11 mm Hg | Δ P50 (oxygen tension at 50% saturation, difference control vs treated) (Hb-S; 10 mM): -14.7 mm Hg

Δ P50 (oxygen tension at 50% saturation, difference control vs treated) (Hb-S; 10 mM): -4.3 mm Hg
Compound: Cl.FC(F)(F)c1cccc(NCC2=NCCN2)c1 [Example 6, 2-((3-Trifluoromethylanilino)methyl)-2-imidazoline Hydrochloride]

Compound: Cl.FC(F)(F)c1cccc(OCC2=NCCN2)c1 [Example 7, 2-(3-Trifluoromethylphenoxy)methyl-2-imidazoline Hydrochloride]
Δ P50 (oxygen tension at 50% saturation, difference control vs treated) (Hb-S; 10 mM): -3.0 mm Hg

Compound: Cl.c1ccc(OCC2=NCCN2)cc1 [Example 8, 2-(Phenoxymethyl)-2-imidazoline Hydrochloride]
Δ P50 (oxygen tension at 50% saturation, difference control vs treated) (Hb-S; 10 mM): -5.0 mm Hg
